#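 Each compound was tested at five concentrations against cells in 96-well plates for 48 hours. GI50 is the concentration that inhibits growth by half. TGI marks complete inhibition of growth.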
# Columns and labels:
# Test in all cases: NCI-60 cell line screen, 48 h
# [1] = system: A549 NSCLC
# [2] = system: MALME-3M melanoma
# [3] = system: HL-60(TB) leukemia
# [4] = system: KM12 colon
# [5] = system: M19-MEL melanoma
# [6] = system: SF-295 CNS
# [7] = system: COLO 205 colon
# [8] = system: UACC-257 melanoma
# [9] = system: UACC-62 melanoma
# [10] = system: CCRF-CEM leukemia
# [11] = system: HOP-62 NSCLC
# [12] = system: NCI-H226 lung
# [13] = system: U251 CNS
# [14] = system: UO-31 renal
# [15] = system: SK-OV-3 ovarian
# [16] = system: OVCAR-3 ovarian
# [17] = system: IGROV1 ovarian
# [18] = system: SK-MEL-28 melanoma
# [19] = system: ACHN renal
# [20] = system: SK-MEL-2 melanoma
# [21] = system: SN12C renal
# [22] = system: 786-0 renal
# [23] = system: K-562 leukemia
# [24] = system: NCI-H522 lung
# [25] = system: A498 renal
# [26] = system: MOLT-4 leukemia
# [27] = system: RPMI-8226 leukemia
# [28] = system: OVCAR-5 ovarian
# [29] = system: HT29 colon
# [30] = system: SW-620 colon
# [31] = system: SNB-75 CNS
# [32] = system: DMS 114 small cell lung
# [33] = system: SK-MEL-5 melanoma
# [34] = system: NCI-H23 lung
# [35] = system: HCC-2998 colon
# [36] = system: HCT-15 colon
# [37] = system: RXF 393 renal
# [38] = system: SF-539 CNS
# [39] = system: TK-10 renal
# [40] = system: OVCAR-8 ovarian
# [41] = system: CAKI-1 renal
# [42] = system: SF-268 CNS
# [43] = system: DMS 273 small cell lung
# [44] = system: EKVX NSCLC
# [45] = system: SNB-19 CNS
# [46] = system: RXF-631 renal
# [47] = system: DLD-1 colon
# [48] = system: LOX IMVI melanoma
# [49] = system: HCT-116 colon
# [50] = system: NCI-H460 lung
# [51] = system: HOP-18 NSCLC
# [52] = system: OVCAR-4 ovarian
# [53] = system: LXFL 529 NSCLC
# [54] = system: SNB-78 CNS
# [55] = system: XF 498 CNS
# [56] = system: M14 melanoma
# [57] = system: KM20L2 colon
# [58] = system: HOP-92 NSCLC
# [59] = system: SR leukemia
smiles,measurement,setting,value
COc1ccc(-c2nc3c(nc2-c2ccc(OC)cc2)C(N)=NS(=O)(=O)N3)cc1,TGI,[1],> 100 µM
same,TGI,[2],> 100 µM
same,TGI,[3],> 100 µM
same,TGI,[4],> 100 µM
same,TGI,[5],> 100 µM
same,TGI,[6],> 100 µM
same,TGI,[7],> 100 µM
same,TGI,[8],> 100 µM
same,TGI,[9],> 100 µM
same,TGI,[10],> 100 µM
same,TGI,[11],> 100 µM
same,TGI,[12],> 100 µM
same,TGI,[13],> 100 µM
same,TGI,[14],> 100 µM
same,TGI,[15],> 100 µM
same,TGI,[16],> 100 µM
same,TGI,[17],> 100 µM
same,TGI,[18],> 100 µM
same,TGI,[19],> 100 µM
same,TGI,[20],> 100 µM
same,TGI,[21],> 100 µM
same,TGI,[22],> 100 µM
same,TGI,[23],> 100 µM
same,TGI,[24],> 100 µM
same,TGI,[25],> 100 µM
same,TGI,[26],> 100 µM
same,TGI,[27],> 100 µM
same,TGI,[28],> 100 µM
same,TGI,[29],> 100 µM
same,TGI,[30],> 100 µM
same,TGI,[31],> 100 µM
same,TGI,[32],> 100 µM
same,TGI,[33],> 100 µM
same,TGI,[34],> 100 µM
same,TGI,[35],> 100 µM
same,TGI,[36],> 100 µM
same,TGI,[37],> 100 µM
same,TGI,[38],> 100 µM
same,TGI,[39],> 100 µM
same,TGI,[40],> 100 µM
same,TGI,[41],> 100 µM
same,TGI,[42],> 100 µM
same,TGI,[43],> 100 µM
same,TGI,[44],> 100 µM
same,TGI,[45],> 100 µM
same,TGI,[46],> 100 µM
same,TGI,[47],> 100 µM
same,TGI,[48],> 100 µM
CCOc1ccc(/C=C/c2cc(OC)c(OC)c(OC)c2)cc1,TGI,[1],> 100 µM
same,TGI,[2],28.8 µM
same,TGI,[3],1.46 µM
same,TGI,[4],> 41.6 µM
same,TGI,[5],> 100 µM
same,TGI,[6],16.9 µM
same,TGI,[49],15.2 µM
same,TGI,[7],2.5 µM
same,TGI,[8],> 100 µM
same,TGI,[9],> 100 µM
same,TGI,[10],> 66.8 µM
same,TGI,[11],35.9 µM
same,TGI,[12],> 26.1 µM
same,TGI,[13],13.2 µM
same,TGI,[14],> 100 µM
same,TGI,[15],> 30.2 µM
same,TGI,[16],1.88 µM
same,TGI,[17],> 93.8 µM
same,TGI,[18],> 100 µM
same,TGI,[50],> 29.6 µM
same,TGI,[51],> 100 µM
same,TGI,[19],> 64.8 µM
same,TGI,[20],20.7 µM
same,TGI,[21],> 28 µM
same,TGI,[22],37.4 µM
same,TGI,[23],> 100 µM
same,TGI,[24],2.21 µM
same,TGI,[52],> 100 µM
same,TGI,[25],30.4 µM
same,TGI,[26],44.6 µM
same,TGI,[27],> 100 µM
same,TGI,[53],15.1 µM
same,TGI,[28],> 100 µM
same,TGI,[29],> 100 µM
same,TGI,[30],> 100 µM
same,TGI,[54],0.85 µM
same,TGI,[31],> 64.1 µM
same,TGI,[32],5.15 µM
same,TGI,[33],14.6 µM
same,TGI,[55],> 100 µM
same,TGI,[56],5.29 µM
same,TGI,[34],> 45.6 µM
same,TGI,[35],6.32 µM
same,TGI,[57],6.81 µM
same,TGI,[58],93.8 µM
same,TGI,[36],> 22.1 µM
same,GI50,[37],0.448 µM
same,TGI,[37],5 µM
same,TGI,[38],3.02 µM
same,TGI,[39],> 100 µM
same,TGI,[40],> 100 µM
same,TGI,[41],24.1 µM
same,TGI,[59],> 100 µM
same,TGI,[42],> 25.8 µM
same,TGI,[44],> 100 µM
same,TGI,[45],> 83.6 µM
same,TGI,[46],> 38 µM
same,TGI,[47],> 100 µM
same,TGI,[48],> 100 µM

# Reference: PubChem BioAssay (NCI)
